{"source": "paper PMC11868595", "about": "“Safety, pharmacokinetics and efficacy of HA121-28 in patients with advanced solid tumors and RET fusion-positive non-small-cell lung cancer: a multicenter, open-label, single-arm phase 1/2 trial” (Signal Transduction and Targeted Therapy, 2025)", "test_system": "patients with advanced solid tumors", "assay": "Phase 1 trial: adverse events (CTCAE), DLT and MTD", "format": "in vivo, human", "details": "Phase 1, 600 mg (N=64)", "protocol": "The phase 1 trial was a two-part, multicenter, open-label, nonrandomized study to evaluate the safety and preliminary efficacy of HA121-28.\nSafety, tolerability, and PK of HA121-28 was assessed in dose-escalation part. The single-patient accelerated titration was carried out at 25 mg and 50 mg; then, the dose escalation proceeded according to a “3 + 3” design in dose range of 100 to 800 mg. Escalation to a higher dose level was considered by the satisfactory review of safety results from the previous lower dose during the first cycle.\nThe dose-expansion part aims to further access the safety and efficacy of HA121-28 at the selected doses based on data from the dose-escalation part. The RP2D was determined by investigators in view of a thorough review of safety, PK, and efficacy results.\nIn phase 1 trial, during the dose-escalation part, patients first administered HA121-28 in a single ascending dose under the fasted state, then followed up for seven days. Then, patients received ascending doses of HA121-28 (q.d.) on a 21-day on and 7-day off treatment scheme for a 28-day cycle. For patients deemed beneficial from the treatment by investigators, treatment could remain until disease progression, or they discontinued from the study. In the dose-expansion part of phase 1, as well as phase 2, patients received HA121-28 (q.d.) at the selected doses on a 21-day on and 7-day off treatment scheme until disease progression, or they discontinued from the study.\nTreatment-emergent adverse events (TEAEs) were documented during the entire study period. The predefined adverse event of special interest (AESI) was ≥ grade 3 prolonged QT interval. Tumor imaging was performed using contrast-enhanced computed tomography or magnetic resonance imaging at screening, Day 28 of the first cycle, then approximately every eight weeks till the end of the study for phase 1; in phase 2, imaging was scheduled at screening, and every eight weeks during the first 40 weeks, followed by every 12 weeks for the rest of the study period. RECIST 1.1 was used by the independent review committee or investigators for assessment of tumor response. After the original assessment, a repeated assessment was required around four weeks later to confirm a complete or partial response.\nThe primary endpoints of phase 1 were to investigate the MTD, dose-limiting toxicities, and the incidence and severity of TEAEs. Each TEAE was graded according to the Common Terminology Criteria for Adverse Events (CTCAE, version 5.0) and coded by Medical Dictionary for Regulatory Activities (MedDRA, version 21.0). The secondary endpoints included calculating PK parameters, assessing the ORR and DCR at the recommended dose by investigators as per RECIST 1.1. The exploratory endpoint was PFS.\nIf grade 2 or higher toxicity related to the study drug occurs in Groups 1 and 2 (as determined by the investigator), dose escalation will proceed using a 3+3 design starting from that dose level. If no DLT is observed at the 800 mg/d dose level after dose escalation, a meeting of investigators will be convened to decide whether to proceed with further dose escalation based on the available PK data, safety, and tolerability information.\n5. Definition of DLT and MTD\nThe following events related to the study drug (including those that are definitely related, highly likely to be related, and possibly related):\n(1) Grade 4 hematologic toxicity or grade 3 neutropenia accompanied by a fever of 38.5℃ or higher, or grade 3 thrombocytopenia accompanied by severe bleeding.\n(2) Patients who discontinued the medication for more than 7 days due to unresolved toxicity reactions or who discontinued the medication more than twice due to toxicity […]\n(3) In the context of supportive treatment, diarrhea of grade 2 lasting more than 7 days, or grade 3 diarrhea lasting more than 3 days."}
{"compound": "COc1cc2c(Nc3ccc(Br)cc3F)ncnc2cc1OCCCCN(C)C.Cl.Cl", "note": "[HA121-28, N-(4-bromo-2-fluorophenyl)-7-(4-(dimethylamino)butoxy)-6-methoxy quinazolin-4-amine dihydrochloride]", "values": [{"measurement": "Serious TEAE: Cardiac tamponade", "result": "0 No. (%)"}, {"measurement": "Serious TEAE: Coronary artery atherosclerosis", "result": "0 No. (%)"}, {"measurement": "Serious TEAE: Death", "result": "0 No. (%)"}, {"measurement": "Serious TEAE: Diarrhea", "result": "2 (3.1) No. (%)"}, {"measurement": "Serious TEAE: Drug eruption", "result": "1 (1.6) No. (%)"}, {"measurement": "Serious TEAE: Dyspnea", "result": "0 No. (%)"}, {"measurement": "Serious TEAE: Embolism", "result": "0 No. (%)"}, {"measurement": "Serious TEAE: Erythema multiforme", "result": "0 No. (%)"}, {"measurement": "Serious TEAE: Headache", "result": "0 No. (%)"}, {"measurement": "Serious TEAE: Hemoptysis", "result": "1 (1.6) No. (%)"}, {"measurement": "Serious TEAE: Hydronephrosis", "result": "0 No. (%)"}, {"measurement": "Serious TEAE: Hypertension", "result": "0 No. (%)"}, {"measurement": "Serious TEAE: Hypoalbuminemia", "result": "1 (1.6) No. (%)"}, {"measurement": "Serious TEAE: Intestinal obstruction", "result": "0 No. (%)"}, {"measurement": "Serious TEAE: Intra-abdominal fluid collection", "result": "0 No. (%)"}, {"measurement": "Serious TEAE: Intracranial tumor hemorrhage", "result": "0 No. (%)"}, {"measurement": "Serious TEAE: Liver injury", "result": "1 (1.6) No. (%)"}, {"measurement": "Serious TEAE: Lung adenocarcinoma", "result": "0 No. (%)"}, {"measurement": "Serious TEAE: Malignant neoplasm progression", "result": "2 (3.1) No. (%)"}, {"measurement": "Serious TEAE: Multiple organ dysfunction syndrome", "result": "0 No. (%)"}, {"measurement": "Serious TEAE: Nausea", "result": "2 (3.1) No. (%)"}, {"measurement": "Serious TEAE: Nephrolithiasis", "result": "0 No. (%)"}, {"measurement": "Serious TEAE: Platelet counts decreased", "result": "1 (1.6) No. (%)"}, {"measurement": "Serious TEAE: Pleural effusion", "result": "0 No. (%)"}, {"measurement": "Serious TEAE: Pneumonia", "result": "0 No. (%)"}, {"measurement": "Serious TEAE: Pneumonitis", "result": "0 No. (%)"}, {"measurement": "Serious TEAE: Prolonged QT interval", "result": "1 (1.6) No. (%)"}, {"measurement": "Serious TEAE: Pulmonary embolism", "result": "0 No. (%)"}, {"measurement": "Serious TEAE: Pyrexia", "result": "0 No. (%)"}, {"measurement": "Serious TEAE: Rash", "result": "3 (4.7) No. (%)"}, {"measurement": "Serious TEAE: Rectal hemorrhage", "result": "0 No. (%)"}, {"measurement": "Serious TEAE: Respiratory failure", "result": "0 No. (%)"}, {"measurement": "Serious TEAE: Seizure", "result": "0 No. (%)"}, {"measurement": "Serious TEAE: Septic shock", "result": "0 No. (%)"}, {"measurement": "Serious TEAE: Sudden cardiac arrest", "result": "1 (1.6) No. (%)"}, {"measurement": "Serious TEAE: Sudden death", "result": "1 (1.6) No. (%)"}, {"measurement": "Serious TEAE: Upper respiratory tract infection", "result": "1 (1.6) No. (%)"}, {"measurement": "Serious TEAE: Ventricular tachycardia", "result": "1 (1.6) No. (%)"}, {"measurement": "Serious TEAE: Vomiting", "result": "2 (3.1) No. (%)"}, {"measurement": "Serious TEAE: Weight loss", "result": "2 (3.1) No. (%)"}, {"measurement": "Serious TRAE: ALT increased", "result": "1 (1.6) No. (%)"}, {"measurement": "Serious TRAE: AST increased", "result": "1 (1.6) No. (%)"}, {"measurement": "Serious TRAE: Abdominal Pain", "result": "0 No. (%)"}, {"measurement": "Serious TRAE: Abdominal distension", "result": "0 No. (%)"}, {"measurement": "Serious TRAE: Acute cholecystitis", "result": "0 No. (%)"}, {"measurement": "Serious TRAE: Acute pancreatitis", "result": "0 No. (%)"}, {"measurement": "Serious TRAE: Anal abscess", "result": "1 (1.6) No. (%)"}, {"measurement": "Serious TRAE: Any", "result": "13 (20.3) No. (%)"}, {"measurement": "Serious TRAE: Aortic intramural hematoma", "result": "0 No. (%)"}, {"measurement": "Serious TRAE: Arrhythmia", "result": "0 No. (%)"}, {"measurement": "Serious TRAE: Blood bilirubin increased", "result": "1 (1.6) No. (%)"}, {"measurement": "Serious TRAE: Blood creatinine increased", "result": "1 (1.6) No. (%)"}, {"measurement": "Serious TRAE: COVID-19", "result": "0 No. (%)"}, {"measurement": "Serious TRAE: Cardiac tamponade", "result": "0 No. (%)"}, {"measurement": "Serious TRAE: Coronary artery atherosclerosis", "result": "0 No. (%)"}, {"measurement": "Serious TRAE: Death", "result": "0 No. (%)"}, {"measurement": "Serious TRAE: Diarrhea", "result": "2 (3.1) No. (%)"}]}
